{"source": "patent US20220054380A1", "about": "“CANN[…] ESTERS FOR COSMETIC OR EDIBLE COMPOSITIONS” (EPM (IP), Inc., priority 2018, published 2022)", "origin": "cited, not measured here", "key": {"[1]": {"test_system": "rats", "conditions": "compared with CBDA, 5-HT1A receptor-dependent"}, "[2]": {"test_system": "rats", "conditions": "compared with CBDA, 5-HT1A receptor-dependent", "remark": "listed apart in the source"}, "[3]": {"test_system": "rats", "conditions": "oral ingestion, low dose (1 mg/kg), two rat models"}}}
{"smiles": "C=C(C)C1CCC(C)=C[C@H]1c1c(O)cc(CCCCC)c(C(=O)OC)c1O", "note": "(stereo partly drawn) [HU-580, Cannabidiolic Acid Methyl Ester]", "values": [{"measurement": "potency at suppressing signs of acute and anticipatory nausea", "setting": "[1]", "value": "greater potency than CBDA"}, {"measurement": "potency at suppressing signs of stress-induced anxiety", "setting": "[2]", "value": "greater potency than CBDA"}, {"measurement": "anti-depressant effect", "setting": "[3]", "value": "potent anti-depressant effect"}]}
